# Laboratory results taken from BindingDB's records for doi:10.7270/Q2V986KM (Burnham Center For Chemical Genomics, 2011).
# Target: T1, Carboxy-terminal domain RNA polymerase II polypeptide A small phosphatase 1 (Homo sapiens, UniProt Q9GZU7)
# T1 sequence (Q9GZU7 whole entry): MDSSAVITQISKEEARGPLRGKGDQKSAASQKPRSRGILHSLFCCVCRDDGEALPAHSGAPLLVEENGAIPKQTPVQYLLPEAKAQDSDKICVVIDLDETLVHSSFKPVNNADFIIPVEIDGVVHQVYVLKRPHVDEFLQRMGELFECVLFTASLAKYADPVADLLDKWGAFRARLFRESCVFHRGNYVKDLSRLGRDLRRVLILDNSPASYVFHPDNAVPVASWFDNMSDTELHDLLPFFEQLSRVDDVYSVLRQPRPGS
# Test: CTDSP1 inhibitors, concentration-response, biochemical, absorbance-based, ultra-high-throughput screen actives (AID 540297)
row,Compound,IC50 [µM]
1,"COc1cc(CN=Nc2nc(O)c(CC(=O)O)s2)ccc1OCc1ccc(Cl)cc1 [2-[2-[2-[[4-[(4-chlorophenyl)methoxy]-3-methoxy-phenyl]methylidene]hydrazinyl]-4-oxidanylidene-1,3-thiazol-5-yl]ethanoic acid]",12.4
2,"O=[N+]([O-])c1cccc(-c2csc(N=NCc3cccc(O)c3)n2)c1 [3-[[[4-(3-nitrophenyl)-1,3-thiazol-2-yl]hydrazinylidene]methyl]phenol]",10.8
3,"Cc1ccc(-n2[nH]c(C)c(CN=Nc3ccc([N+](=O)[O-])cc3[N+](=O)[O-])c2=O)cc1C [(4E)-2-(3,4-dimethylphenyl)-4-[[(2,4-dinitrophenyl)hydrazo]methylidene]-5-methyl-3-pyrazolone]",3.32
4,"CCCCCn1cc(O)c(-c2nc(-c3ccc(Cl)cc3)cs2)c1N [5-azanyl-4-[4-(4-chlorophenyl)-1,3-thiazol-2-yl]-1-pentyl-2H-pyrrol-3-one]",5.38
5,"O=C1CC(=O)c2cccc(O)c2C1=O [4,8-dihydroxynaphthalene-1,2-dione]",44.5
6,O=c1c(Cl)c(N=NCc2ccc(Br)cc2)cnn1-c1ccccc1,> 80
7,CCOc1cc(CN=Nc2nc(O)c(CC(=O)O)s2)ccc1OCc1ccccc1Cl,4.28
8,"Cc1cc(C)n2c(SCC(=O)C(C#N)c3nc4ccccc4[nH]3)nnc2n1 (stereo unspecified) [2-(1,3-dihydrobenzimidazol-2-ylidene)-4-[(5,7-dimethyl-[1,2,4]triazolo[4,3-a]pyrimidin-3-yl)sulfanyl]-3-oxidanylidene-butanenitrile]",5.01
9,"C=CC1=C(C(=O)O)N2C(=O)[C@@H](NC(=O)C(N=O)c3csc(N)n3)[C@H]2SC1 (stereo partly drawn) [(6R,7R)-7-[[2-(2-azanyl-1,3-thiazol-4-yl)-2-hydroxyimino-ethanoyl]amino]-3-ethenyl-8-oxidanylidene-5-thia-1-azabicyclo[4.2.0]oct-2-ene-2-carboxylic acid]",4.48
10,CC(=NNC(=O)c1cccc(N=NC(C)c2ccco2)c1)c1ccco1 (stereo unspecified) [N-[1-(2-furanyl)ethylideneamino]-3-[2-[1-(2-furanyl)ethylidene]hydrazinyl]benzamide],3.17
11,Cc1ccc(C(=O)N[n+]2cc(O)[c-](-c3nc(-c4cccc([N+](=O)[O-])c4)cs3)c2N)cc1 [MLS000391743],4.06
12,"N#CC1=c2sc(=Cc3ccco3)c(=O)n2C(=N)C(C#N)C1c1ccco1 (stereo unspecified) [5-amino-7-(furan-2-yl)-2-(furan-2-ylmethylidene)-3-oxo-7H-[1,3]thiazolo[3,2-a]pyridine-6,8-dicarbonitrile]",3.44
13,O=C(O)CCC(N=Nc1ccc(S(=O)(=O)N2CCCC2)cc1[N+](=O)[O-])c1cccs1 (stereo unspecified) [4-[(2-nitro-4-pyrrolidin-1-ylsulfonyl-phenyl)hydrazinylidene]-4-thiophen-2-yl-butanoic acid],15.5
14,COc1ccccc1NC(=O)CN1C(=O)/C(=N\NC(=O)c2ccccc2O)c2ccccc21 [2-hydroxy-N-[(Z)-[1-[2-(2-methoxyanilino)-2-oxoethyl]-2-oxo-3-indolylidene]amino]benzamide],2.74
15,Cc1ccc(OCC(=O)N/N=C/c2ccc(O)c([N+](=O)[O-])c2)c([N+](=O)[O-])c1 [SMR000312577],8.42
16,CC(=O)C(C[N+]1(C)CCCCC1)N=O (stereo unspecified),3.4
17,"C=c1[nH]c(=Cc2ccc(CNC(=O)C(=O)Nc3ccccc3)o2)c(O)c1C(=O)OCC [(5E)-5-[[5-[[(2-anilino-1,2-dioxoethyl)amino]methyl]-2-furanyl]methylidene]-2-methyl-4-oxo-1H-pyrrole-3-carboxylic acid ethyl ester]",8.55
18,O=C(NN=C/C=C/c1ccccc1)c1cc2c(ccc3ccccc32)o1 [N-[[(E)-3-phenylprop-2-enylidene]amino]-2-benzo[e]benzofurancarboxamide],1.72
19,O=C1Nc2ccc([N+](=O)[O-])cc2/C1=N/NC(=O)c1cc(-c2ccccc2Cl)nc2ccccc12 [2-(2-chlorophenyl)-N'-(2-keto-5-nitro-indol-3-yl)cinchoninohydrazide],0.711

row,Compound,IC50 [µM]
1,CC(N=Nc1ccc(Cl)c(C(=O)O)c1)c1ccc[nH]1 (stereo unspecified) [2-chloro-5-[2-[(1Z)-1-pyrrol-2-ylideneethyl]hydrazinyl]benzoic acid],4.28
2,"O=C(O)c1cccc(-n2c(O)c3c(c2O)CC(Cl)=CC3)c1 [3-[5-chloranyl-1,3-bis(oxidanylidene)-3a,4,7,7a-tetrahydroisoindol-2-yl]benzoic acid]",10.3
3,CCOC(=O)C1C(COC(=O)C=Cc2ccco2)=NC(=O)NC1C (stereo unspecified),4.25
4,"O=C(NN=C/C=C/c1ccc(Br)cc1)c1ccc2c(c1)OCO2 [Benzo[1,3]dioxole-5-carboxylic acid [3-(4-bromo-phenyl)-allylidene]-hydrazide]",4.92
5,O=C(NN=C/C=C\c1ccco1)c1ccccn1 [Pyridine-2-carboxylic acid [(Z)-3-furan-2-yl-prop-2-en-(E)-ylidene]-hydrazide],14.5
6,CCOc1ccccc1/N=C1\SCCCN1C,23
7,CCOc1ccc(CN=Nc2ccc(S(=O)(=O)Nc3ccccc3C(=O)O)cc2[N+](=O)[O-])cc1OC [SMR001308940],3.51
8,"Cc1ccccc1NC(=O)CN1C(=O)/C(=N\NC(=O)c2ccccc2O)c2ccccc21 [2-{3-[(2-Hydroxy-benzoyl)-hydrazono]-2-oxo-2,3-dihydro-indol-1-yl}-N-o-tolyl-acetamide]",1.23
9,C=CCC1C=C(/C=C/c2nc(O)c([N+](=O)[O-])c(=O)[nH]2)C=C(OC)C1=O (stereo unspecified) [MLS000716350],19.3
10,O=C(O)Cc1sc(N=NCc2ccccc2)nc1-c1ccccc1,5.14
11,O=c1cc(O)[n+]2nc(-c3ccc([N+](=O)[O-])cc3)sc2[n-]1 [SMR000175134],5.67
12,CCCCC1(C)OC(=O)C(=Cc2ccc(-c3ccc(Cl)c(C(=O)O)c3)o2)C(=O)O1 (stereo unspecified),15.1
13,C[N+](C)(C)CCNC(=O)C1=C/C(=C\N=O)N(Cc2ccccc2)C=C1,7.56
14,"Cc1cc(=O)n(-c2ccc(Cl)c(C(=O)O)c2)[nH]1 [2-Chloro-5-(3-methyl-5-oxo-4,5-dihydro-pyrazol-1-yl)-benzoic acid]",8.96
15,C=CCOc1ccc(CN=Nc2ccc(S(=O)(=O)Nc3ccccc3C(=O)O)cc2[N+](=O)[O-])cc1OC [2-[[4-[2-[(3-methoxy-4-prop-2-enoxy-phenyl)methylidene]hydrazinyl]-3-nitro-phenyl]sulfonylamino]benzoic acid],2
16,Cc1ccc(-c2csc(-n3[nH]c(C)c(N=Nc4ccccc4O)c3=O)n2)cc1,3.69
17,CSc1nnc(C)c(CC=Nc2ccc(F)cc2F)n1 [MLS000707071],13.3
18,Cc1ccc(C(=O)NN=C/C=C/c2ccc(Br)cc2)cn1 [MLS000723380],24.1
19,O=NCc1cc(Br)ccc1OCC(=O)O [2-[4-bromanyl-2-(hydroxyiminomethyl)phenoxy]ethanoic acid],8.03

row,Compound,IC50 [µM]
1,Cc1cccc(NC(=O)CN2C(=O)/C(=N\NC(=O)c3ccccc3O)c3ccccc32)c1 [MLS000548432],1.99
2,C/C(C=NNC(=O)c1ccc(Br)cc1)=C\c1ccccc1 [SMR000140417],4.83
3,COc1ccccc1N/C(C)=[N+](\C)CCNS(=O)(=O)c1ccc(Cl)cc1 [MLS001165874],3.73
4,"CC(=NNC(=O)c1cc(-c2cccc([N+](=O)[O-])c2)n[nH]1)C1C=CC=CC1=O (stereo unspecified) [3-(3-nitrophenyl)-N'-[(1E)-1-(6-oxo-1-cyclohexa-2,4-dienylidene)ethyl]-1H-pyrazole-5-carbohydrazide]",1.7
5,"COc1ccc(CN=Nc2nc(O)c(CC(=O)O)s2)cc1OCc1ccc(Cl)cc1Cl [[2-({3-[(2,4-dichlorobenzyl)oxy]-4-methoxybenzylidene}hydrazono)-4-oxo-1,3-thiazolidin-5-yl]acetic acid]",4.48
6,CC1=CC(=NNC(=O)c2ccccc2O)c2ccccc2C1=O [MLS000685531],5.15
7,Cc1ccc(-c2csc(-c3c(O)cn(NC(=O)c4ccco4)c3N)n2)cc1 [SMR000363171],12.9
8,C[N+]1=C(CC=Nc2ccccc2Cl)C(C)(C)c2ccccc21 [SMR000173746],5.96
9,O=C(CSc1nc(O)cc(=O)[nH]1)Nc1ccccc1[N+](=O)[O-] [SMR000620617],4.04
10,Cc1[nH][nH]c(=O)c1CCC(=O)NN=Cc1ccco1,> 80
11,O=C1C=C(O)/C(=C/NN2C(=O)C3C(C2=O)C2C=CC3C23CC3)C=C1[N+](=O)[O-] (stereo unspecified) [MLS000705206],4.9
12,"Cc1cccc(C(=O)/N=c2\c(C#N)cc3c(=O)n4cccc(C)c4nc3n2Cc2ccco2)c1 [N-[3-cyano-1-(furan-2-ylmethyl)-10-methyl-5-oxodipyrido[3,4-c:1',2'-f]pyrimidin-2-ylidene]-3-methylbenzamide]",5.58
13,Cc1ccc(OCC(=O)NN=C/C=C/c2ccco2)cc1 [MLS000563872],6
14,COc1ccc(CN=Nc2ncc(Br)cn2)c(OC)c1 [MLS000856301],19.6
15,"CC1(CC(=O)NN=CC2C=C([N+](=O)[O-])C(=O)C=C2O)OCCO1 (stereo unspecified) [N'-[(E)-(2-hydroxy-5-nitro-4-oxocyclohexa-2,5-dien-1-ylidene)methyl]-2-(2-methyl-1,3-dioxolan-2-yl)acetohydrazide]",4.41
16,O=NCc1cccn1-c1cccc(C(=O)O)c1 [3-[2-(hydroximinomethyl)pyrrol-1-yl]benzoic acid],3.09
17,Cc1ccc(-n2[nH]c(C)c(CN=Nc3ccc([N+](=O)[O-])cc3[N+](=O)[O-])c2=O)cc1 [SMR000171521],6.07
18,"CC=CC=CC(=O)C1C(=O)[C@]2(C)C(=O)C(C)(O)[C@H]1[C@H]([C@]1(C)OC(=O)C(C)C1=O)[C@H]2C(=O)C=CC=CC (stereo partly drawn) [(1S,4R,6E,7S,8R)-8-[(2E,4E)-hexa-2,4-dienoyl]-2-hydroxy-7-[(2S)-5-hydroxy-2,4-dimethyl-3-oxofuran-2-yl]-6-[(2E,4E)-1-hydroxyhexa-2,4-dienylidene]-2,4-dimethylbicyclo[2.2.2]octane-3,5-dione]",5.92
